Results on one compound are retold here after article PMC10382584, “Macrocyclization of linear molecules by deep learning to facilitate macrocyclic drug candidates discovery” (Nature Communications, 2023).

What all share (assay): biochemical
What all share (design): DiscoveRx KINOMEscan competition binding, percent of DMSO control signal at 100 nM
What all share (details): read-out: Fig. 4a / Percent Control / Compound 1; percent of DMSO control, competition binding

Test [1] deals with EGFR(L747-E749del, A750P) (Homo sapiens, UniProt P00533, A750P/DEL747-749).
Chain of EGFR(L747-E749del, A750P) (P00533 with tags, fused parts or gaps DEL747-749/A750P): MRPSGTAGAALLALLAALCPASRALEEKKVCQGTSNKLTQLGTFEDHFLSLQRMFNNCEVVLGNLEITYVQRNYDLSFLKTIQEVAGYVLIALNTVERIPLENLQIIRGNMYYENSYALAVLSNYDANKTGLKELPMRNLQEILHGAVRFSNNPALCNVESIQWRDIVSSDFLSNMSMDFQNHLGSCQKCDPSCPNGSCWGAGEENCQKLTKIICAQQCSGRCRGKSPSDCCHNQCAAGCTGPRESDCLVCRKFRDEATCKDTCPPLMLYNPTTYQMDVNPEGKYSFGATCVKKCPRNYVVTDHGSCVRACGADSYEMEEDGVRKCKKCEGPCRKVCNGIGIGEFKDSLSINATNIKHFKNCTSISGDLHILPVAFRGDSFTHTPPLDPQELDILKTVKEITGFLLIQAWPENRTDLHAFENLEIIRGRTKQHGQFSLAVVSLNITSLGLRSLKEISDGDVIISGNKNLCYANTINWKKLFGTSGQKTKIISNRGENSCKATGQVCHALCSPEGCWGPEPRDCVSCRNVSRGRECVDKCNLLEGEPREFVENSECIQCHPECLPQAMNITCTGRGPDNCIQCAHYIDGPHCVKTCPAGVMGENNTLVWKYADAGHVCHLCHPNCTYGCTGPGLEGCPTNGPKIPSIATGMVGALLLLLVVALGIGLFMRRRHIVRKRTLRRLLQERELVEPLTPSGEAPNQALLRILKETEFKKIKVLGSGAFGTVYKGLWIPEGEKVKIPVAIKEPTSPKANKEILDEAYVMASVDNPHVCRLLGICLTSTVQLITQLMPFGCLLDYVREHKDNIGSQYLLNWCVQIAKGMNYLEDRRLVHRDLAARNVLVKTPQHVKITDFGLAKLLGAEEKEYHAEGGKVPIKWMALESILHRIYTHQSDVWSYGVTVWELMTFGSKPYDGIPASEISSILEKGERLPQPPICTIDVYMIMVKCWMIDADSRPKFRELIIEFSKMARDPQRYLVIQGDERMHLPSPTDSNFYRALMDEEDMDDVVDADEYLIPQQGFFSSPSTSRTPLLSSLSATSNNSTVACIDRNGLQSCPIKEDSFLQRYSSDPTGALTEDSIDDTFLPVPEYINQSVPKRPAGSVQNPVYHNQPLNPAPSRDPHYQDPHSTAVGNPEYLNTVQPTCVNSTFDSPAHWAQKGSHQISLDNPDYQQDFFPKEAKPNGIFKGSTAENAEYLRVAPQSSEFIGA
Test [2] deals with T1, GCN2(Kin.Dom.2,S808G) (Homo sapiens, UniProt Q9P2K8, S808G).
T1 construct: gene EIF2AK4; Kin.Dom.2
T1 sequence (Q9P2K8 whole entry S808G): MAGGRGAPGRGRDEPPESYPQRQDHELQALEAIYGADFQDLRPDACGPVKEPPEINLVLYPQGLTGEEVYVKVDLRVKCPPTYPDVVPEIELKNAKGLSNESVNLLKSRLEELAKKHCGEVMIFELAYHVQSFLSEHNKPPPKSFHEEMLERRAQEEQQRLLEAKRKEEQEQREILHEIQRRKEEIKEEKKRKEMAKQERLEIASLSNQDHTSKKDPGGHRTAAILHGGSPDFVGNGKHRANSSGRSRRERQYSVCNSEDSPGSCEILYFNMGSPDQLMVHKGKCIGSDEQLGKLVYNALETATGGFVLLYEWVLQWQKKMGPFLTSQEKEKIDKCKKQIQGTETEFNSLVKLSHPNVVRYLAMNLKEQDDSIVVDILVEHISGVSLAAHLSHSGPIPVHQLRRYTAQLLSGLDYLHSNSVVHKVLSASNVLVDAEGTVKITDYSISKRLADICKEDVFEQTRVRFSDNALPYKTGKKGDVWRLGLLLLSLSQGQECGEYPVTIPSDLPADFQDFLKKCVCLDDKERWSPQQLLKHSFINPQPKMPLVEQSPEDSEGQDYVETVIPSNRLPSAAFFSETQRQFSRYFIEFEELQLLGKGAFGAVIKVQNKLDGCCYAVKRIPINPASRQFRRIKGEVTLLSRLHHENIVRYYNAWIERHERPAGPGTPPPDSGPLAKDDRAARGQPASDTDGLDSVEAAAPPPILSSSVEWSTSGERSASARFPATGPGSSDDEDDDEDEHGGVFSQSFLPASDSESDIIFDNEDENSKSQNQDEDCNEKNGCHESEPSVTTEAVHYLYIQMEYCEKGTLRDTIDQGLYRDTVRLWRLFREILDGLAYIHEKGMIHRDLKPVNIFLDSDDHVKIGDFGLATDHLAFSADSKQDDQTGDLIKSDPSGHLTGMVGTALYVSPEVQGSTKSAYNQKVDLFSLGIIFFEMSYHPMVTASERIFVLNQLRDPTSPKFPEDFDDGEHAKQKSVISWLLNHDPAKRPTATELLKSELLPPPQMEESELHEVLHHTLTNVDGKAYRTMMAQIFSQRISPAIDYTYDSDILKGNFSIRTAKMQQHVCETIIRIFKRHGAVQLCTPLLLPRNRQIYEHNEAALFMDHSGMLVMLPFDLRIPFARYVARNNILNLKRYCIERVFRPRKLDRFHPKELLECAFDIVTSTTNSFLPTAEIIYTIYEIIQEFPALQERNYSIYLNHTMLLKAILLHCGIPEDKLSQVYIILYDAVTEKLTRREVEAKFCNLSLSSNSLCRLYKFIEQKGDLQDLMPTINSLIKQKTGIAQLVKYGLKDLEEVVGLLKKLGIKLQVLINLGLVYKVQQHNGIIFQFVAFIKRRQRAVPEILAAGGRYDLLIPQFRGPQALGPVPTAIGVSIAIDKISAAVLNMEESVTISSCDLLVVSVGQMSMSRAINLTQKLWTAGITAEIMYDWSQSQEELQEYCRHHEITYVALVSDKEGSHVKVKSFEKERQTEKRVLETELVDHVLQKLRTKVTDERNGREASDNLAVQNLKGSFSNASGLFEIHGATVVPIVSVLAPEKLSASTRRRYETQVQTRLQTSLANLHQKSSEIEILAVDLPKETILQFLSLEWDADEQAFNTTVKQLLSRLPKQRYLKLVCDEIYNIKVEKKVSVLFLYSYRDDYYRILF

Test [3] concerns the target RET(V804M) (Homo sapiens, UniProt P07949, V804M).
The target of test [4] is T2, ZAK (Homo sapiens, UniProt Q9NYL2).
T2 construct: gene MAP3K20

Test [5] addresses PRKG1 (Homo sapiens, UniProt Q13976).
Test [6] has as its target CDK3 (Homo sapiens, UniProt Q00526).
The target of test [7] is ULK2 (Homo sapiens, UniProt Q8IYT8).
Test [8] deals with T3, RSK4(Kin.Dom.2-C-terminal) (Homo sapiens, UniProt Q9UK32).
T3 construct: gene RPS6KA6; Kin.Dom.2-C-terminal

Test [9] concerns the target T4, SNARK (Homo sapiens, UniProt Q9H093).
T4 construct: gene NUAK2

For test [10], the target named is ALK(L1196M) (Homo sapiens, UniProt Q9UM73, L1196M).
The target in test [11] is WNK3 (Homo sapiens, UniProt Q9BYP7).
Test [12] deals with FLT3(K663Q) (Homo sapiens, UniProt P36888, K663Q).
In test [13] the target is HUNK (Homo sapiens, UniProt P57058).
For test [14], the target named is PDGFRB (Homo sapiens, UniProt P09619).
Chain of PDGFRB (P09619 whole entry): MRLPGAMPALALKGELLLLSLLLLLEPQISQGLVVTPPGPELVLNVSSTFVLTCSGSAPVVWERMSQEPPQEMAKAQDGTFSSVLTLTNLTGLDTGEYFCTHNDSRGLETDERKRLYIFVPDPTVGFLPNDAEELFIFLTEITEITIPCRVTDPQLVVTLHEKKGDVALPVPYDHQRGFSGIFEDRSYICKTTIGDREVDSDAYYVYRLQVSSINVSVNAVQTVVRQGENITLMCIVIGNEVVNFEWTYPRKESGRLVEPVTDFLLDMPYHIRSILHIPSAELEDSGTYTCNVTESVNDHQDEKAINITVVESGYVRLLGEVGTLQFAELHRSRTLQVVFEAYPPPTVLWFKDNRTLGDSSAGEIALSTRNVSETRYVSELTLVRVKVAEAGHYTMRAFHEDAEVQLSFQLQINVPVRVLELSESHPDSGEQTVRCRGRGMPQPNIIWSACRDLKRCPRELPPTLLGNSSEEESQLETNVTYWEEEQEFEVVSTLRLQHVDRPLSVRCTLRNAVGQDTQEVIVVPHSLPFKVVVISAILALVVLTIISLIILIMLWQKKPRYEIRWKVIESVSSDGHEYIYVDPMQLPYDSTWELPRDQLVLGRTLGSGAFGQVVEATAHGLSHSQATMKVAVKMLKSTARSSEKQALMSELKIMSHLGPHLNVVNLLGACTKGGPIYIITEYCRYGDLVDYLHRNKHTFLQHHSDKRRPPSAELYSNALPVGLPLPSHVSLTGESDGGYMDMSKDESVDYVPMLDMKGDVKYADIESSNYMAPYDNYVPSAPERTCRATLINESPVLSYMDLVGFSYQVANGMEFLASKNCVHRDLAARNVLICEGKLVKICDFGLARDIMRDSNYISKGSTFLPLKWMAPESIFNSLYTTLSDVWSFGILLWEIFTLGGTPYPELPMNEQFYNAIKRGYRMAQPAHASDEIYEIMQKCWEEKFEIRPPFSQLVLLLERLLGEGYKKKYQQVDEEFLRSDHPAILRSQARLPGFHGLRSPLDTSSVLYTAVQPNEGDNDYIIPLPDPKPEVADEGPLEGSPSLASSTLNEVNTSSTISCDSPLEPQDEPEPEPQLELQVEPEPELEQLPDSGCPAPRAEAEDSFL
Test [15] has as its target T5, HPK1 (Homo sapiens, UniProt Q92918).
T5 construct: gene MAP4K1

Test [16] has as its target T6, MEK1 (Homo sapiens, UniProt Q02750).
T6 construct: gene MAP2K1

Test [17] addresses PAK3 (Homo sapiens, UniProt O75914).
The target of test [18] is PRKD3 (Homo sapiens, UniProt O94806).
The target of test [19] is T7, p38-delta (Homo sapiens, UniProt O15264).
T7 construct: gene MAPK13

Test [20] has as its target T8, IKK-alpha (Homo sapiens, UniProt O15111).
T8 construct: gene CHUK

In test [21] the target is GRK3 (Homo sapiens, UniProt P35626).
Chain of GRK3 (P35626 whole entry): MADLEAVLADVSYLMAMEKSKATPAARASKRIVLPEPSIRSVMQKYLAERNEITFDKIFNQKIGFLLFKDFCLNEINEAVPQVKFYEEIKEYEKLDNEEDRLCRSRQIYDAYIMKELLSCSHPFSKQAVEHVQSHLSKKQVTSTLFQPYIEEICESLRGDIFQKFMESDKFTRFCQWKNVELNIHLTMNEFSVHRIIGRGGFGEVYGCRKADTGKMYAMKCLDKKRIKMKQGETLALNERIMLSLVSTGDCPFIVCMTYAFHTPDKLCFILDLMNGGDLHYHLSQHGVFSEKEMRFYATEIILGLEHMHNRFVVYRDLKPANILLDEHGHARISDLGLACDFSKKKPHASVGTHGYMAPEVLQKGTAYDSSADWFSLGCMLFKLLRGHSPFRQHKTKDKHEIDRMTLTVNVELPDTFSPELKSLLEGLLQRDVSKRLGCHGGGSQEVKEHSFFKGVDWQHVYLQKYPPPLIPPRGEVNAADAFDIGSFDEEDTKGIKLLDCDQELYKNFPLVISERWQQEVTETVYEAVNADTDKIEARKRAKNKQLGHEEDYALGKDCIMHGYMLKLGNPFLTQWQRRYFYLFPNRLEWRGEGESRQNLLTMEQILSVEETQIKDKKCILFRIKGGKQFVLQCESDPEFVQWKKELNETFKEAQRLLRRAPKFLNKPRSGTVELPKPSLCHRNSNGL
Test [22] deals with ACVR2B (Homo sapiens, UniProt Q13705).
The target of test [23] is RET(V804L) (Homo sapiens, UniProt P07949, V804L).
The target of test [24] is MKNK2 (Homo sapiens, UniProt Q9HBH9).
Chain of MKNK2 (Q9HBH9 whole entry): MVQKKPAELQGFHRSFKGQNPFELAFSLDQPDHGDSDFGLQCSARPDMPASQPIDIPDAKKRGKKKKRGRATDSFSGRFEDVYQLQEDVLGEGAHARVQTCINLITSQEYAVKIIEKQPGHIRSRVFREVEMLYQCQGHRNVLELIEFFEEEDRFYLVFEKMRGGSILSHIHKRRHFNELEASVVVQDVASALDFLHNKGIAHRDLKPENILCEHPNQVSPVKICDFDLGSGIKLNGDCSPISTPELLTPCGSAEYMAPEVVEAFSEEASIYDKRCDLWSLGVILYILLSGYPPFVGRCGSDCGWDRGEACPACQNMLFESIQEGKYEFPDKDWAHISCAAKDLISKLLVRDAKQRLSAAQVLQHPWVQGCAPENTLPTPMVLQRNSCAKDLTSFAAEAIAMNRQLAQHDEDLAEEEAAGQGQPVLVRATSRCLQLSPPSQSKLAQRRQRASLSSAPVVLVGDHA
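Note: KINOMEscan kinase panel binding assay, signal normalized between DMSO as 100% and a positive control compound as 0%.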

In the case of `Cc1cnc2nc1Nc1cccc(c1)COCc1cc(ccc1OCCN1CCCC1)N2` [Compound 1], the remaining binding at 0.1 µM in [1] was found to be 88%; in test [2] it was 38%; in [3] it was 80%; in test [4] it was 100%; in test [5], 100%; in [6], 91%. Further, the remaining binding at 0.1 µM in [7] is 83%; in test [8] it was 96%; in test [9] it was 36%; in test [10] it was 60%; in [11], 95%; in [12] it was 36%. The remaining binding at 0.1 µM in [13] is 100%; in test [14], 51%; in test [15] it was 72%; in test [16], 77%; in test [17], 100%; in test [18] it was 100%. Also, the remaining binding at 0.1 µM in test [19] was determined as 100%; in test [20], 96%; in test [21], 72%; in [22] it was 96%; in test [23] it was 88%; in [24], 67%.
